Measurements as given in patent US6368788B1 (priority 1987, dated 2002).
Values joined by “and” are separate entries in the source; they are usually repeats but may differ in a detail not shown here. Identical values can stand only once. Marks after values point to notes of the source that are not given here.

Legend:
[1] = system: acute respiratory infections; test: Prophylaxis of respiratory infection in athletes in training, intranasal L-Glu-L-Trp; assay type: in vivo, human; settings: for B-Lymphocytes / B-Lymphocytes % Normal Value / B-Lymphocytes (%) / Blasts w/Con-A / Blasts w/PHA / C3 / Eosinophils / Eosinophils (%) / Eosinophils, % Normal Value / Granulocyte Cationic Proteins / IgA / IgA % Normal Value / IgG / IgG % Normal Value / IgM / IgM % Normal Value / Leukocytes / Leukocytes % Normal Value / Leukocytes, Ratio Post-Treat/Pre-Treat Value / Lymphocytes / Lymphocytes % Normal Value / Lymphocytes, % / Monocytes / Monocytes, % / Monocytes, % Normal Value / Neutrophils / Neutrophils, % / Neutrophils, % Normal Value / Phagocytosis (yeast) / Salivary IgM / Salivary Lysozyme / Salivary Secretory IgA / Serum Lysozyme / Serum β-Lysin / T-Lymphocytes / T-Lymphocytes % Normal Value / T-Lymphocytes (%) / T-helper (CD4+) / T-helper (CD4+), % / T-helper (CD4+), % Normal Value / T-suppressor (CD8+) / T-suppressor (CD8+), % / T-suppressor (CD8+), % Normal Value / Total Salivary IgA: After L-Glu-L-Trp
[2] = Pleuritis / suppurative lung diseases, combined antibiotic therapy (Protocol K); assay type: in vivo, human
Procedure: Efficacy of L-Glu-L-Trp in combined antibiotic therapy was evaluated in twelve male patients (aged 18 to 45) with suppurative lung diseases that were poorly responsive to antibiotic therapy and accompanied by diffuse pleuritis, disseminated intravascular coagulation (DIC), pleural effusions, and fever. […] L-Glu-L-Trp was administered to these patients as a treatment of nearly last resort, and as part of the ongoing (unsuccessful) regimen of broad spectrum antibiotic therapy: i.e., 200 μg of L-Glu-L-Trp was administered im daily over a period of 5-7 days. […] In addition, T-cell counts in peripheral blood increased and IgG, IgM, and IgA increased (TABLE 17) and C-reactive protein levels fell (TABLE 16).

Dengue virus = test: Dengue Protocol B; design: species or system human; settings: in vivo
Procedure: Sixty Dengue virus infected patients (60) were entered into the trial; 36 were treated with L-Glu-L-Trp and 24 were treated using conventional therapy (i.e., controls).

[3] = system: Mycobacterium tuberculosis; design: species or system human; settings: in vivo
neutrophils = test: Neutrophil response to proteose peptone and phagocytic activity in CBA mice; assay type: in vivo; settings: for Phagocytes (%) / Phagocytic Index: induced neutrophils; for Total Number of Cells Induced: neutrophil response to proteose peptone
Staphylococcus aureus = test: Survival after acute peritonitis with LD100 dose of antibiotic-resistant Staphylococcus aureus, prophylactic treatment; settings: for Percentage Survivors: ip prophylactic

## L-Glu-L-Trp
[1]; Athletes
  B-Lymphocytes: 0.29 ± 0.02 ×10^9/L
  B-Lymphocytes % Normal Value: (74%)
  B-Lymphocytes (%): 13.6 ± 0.9 %
  Blasts w/Con-A: 53.4 ± 3.9%
  Blasts w/PHA: 42.5 ± 2.5 %
  C3: 0.8 ± 0.02 g/L
  Eosinophils: 0.23 ± 0.03 ×10^9/L
  Eosinophils (%): 4.2 ± 0.6%
  Eosinophils, % Normal Value: (96%)
  Granulocyte Cationic Proteins: 1.1 ± 0.04
  IgA: 1.8 ± 0.1 mg/mL
  IgA % Normal Value: (138%)
  IgG: 10.2 ± 0.6 mg/mL
  IgG % Normal Value: (84%)
  IgM: 1.1 ± 0.07 mg/mL
  IgM % Normal Value: (100%)
  Leukocytes: 6.1 ± 0.2 ×10^9/L
  Leukocytes % Normal Value: (109%)
  Leukocytes, Ratio Post-Treat/Pre-Treat Value: (1.09)
  Lymphocytes: 2.22 ± 0.1 ×10^9/L
  Lymphocytes % Normal Value: (104%)
  Lymphocytes, %: 34.9 ± 4.7%
  Monocytes: 0.59 ± 0.05 ×10^9/L
  Monocytes, %: 9.4 ± 0.5%
  Monocytes, % Normal Value: (137%)
  Neutrophils: 3.01 ± 0.2 ×10^9/L
  Neutrophils, %: 49.0 ± 1.5%
  Neutrophils, % Normal Value: (115%)
  Phagocytosis (yeast): 73.3 ± 1.5
  Salivary IgM: 0.65 g/L
  Salivary Lysozyme: 68.7 ± 1.3 %
  Salivary Secretory IgA: 0.056 ± 0.004 g/L
  Serum Lysozyme: 60.2 ± 1.6%
  Serum β-Lysin: 57.6 ± 3.2 %
  T-Lymphocytes: 1.55 ± 0.08 ×10^9/L
  T-Lymphocytes % Normal Value: (108%)
  T-Lymphocytes (%): 70.8 ± 1.4 %
  T-helper (CD4+): 1.25 ± 0.07 ×10^9/L
  T-helper (CD4+), %: 56.1 ± 1.3 %
  T-helper (CD4+), % Normal Value: (112%)
  T-suppressor (CD8+): 0.12 ± 0.02 ×10^9/L
  T-suppressor (CD8+), %: 5.9 ± 0.7%
  T-suppressor (CD8+), % Normal Value: (86%)
  Total Salivary IgA: 0.55 ± 0.05 g/L
[1]; Controls
  B-Lymphocytes: 0.41 ± 0.05 ×10^9/L
  B-Lymphocytes % Normal Value: (85%)
  B-Lymphocytes (%): 20.1 ± 1.5%
  Blasts w/Con-A: 66.8 ± 4.0 %
  Blasts w/PHA: 34.1 ± 3.1%
  C3: 0.7 ± 0.03 g/L
  Eosinophils: 0.22 ± 0.07 ×10^9/L
  Eosinophils (%): 4.0 ± 0.8%
  Eosinophils, % Normal Value: (85%)
  Granulocyte Cationic Proteins: 1.22 ± 0.1
  IgA: 1.8 ± 0.2 mg/mL
  IgA % Normal Value: (100%)
  IgG: 12.6 ± 0.7 mg/mL
  IgG % Normal Value: (104%)
  IgM: 1.0 ± 0.02 mg/mL
  IgM % Normal Value: (77%)
  Leukocytes: 5.6 ± 0.4 ×10^9/L
  Leukocytes % Normal Value: (97%)
  Leukocytes, Ratio Post-Treat/Pre-Treat Value: (0.85)
  Lymphocytes: 2.08 ± 0.2 ×10^9/L
  Lymphocytes % Normal Value: (99%)
  Lymphocytes, %: 37.8 ± 2.9%
  Monocytes: 0.58 ± 0.07 ×10^9/L
  Monocytes, %: 10.6 ± 1.2%
  Monocytes, % Normal Value: (88%)
  Neutrophils: 2.67 ± 0.3 ×10^9/L
  Neutrophils, %: 47.5 ± 2.9%
  Neutrophils, % Normal Value: (75%)
  Phagocytosis (yeast): 75.0 ± 1.7
  Salivary IgM: 0.73 g/L
  Salivary Lysozyme: 63.5 ± 3.0%
  Salivary Secretory IgA: 0.066 ± 0.009 g/L
  Serum Lysozyme: 50.6 ± 1.4 %
  Serum β-Lysin: 46.8 ± 5.4%
  T-Lymphocytes: 1.56 ± 0.1 ×10^9/L
  T-Lymphocytes % Normal Value: (108%)
  T-Lymphocytes (%): 73.9 ± 1.7%
  T-helper (CD4+): 1.36 ± 0.2 ×10^9/L
  T-helper (CD4+), %: 65.6 ± 2.0 %
  T-helper (CD4+), % Normal Value: (136%)
  T-suppressor (CD8+): 0.08 ± 0.05 ×10^9/L
  T-suppressor (CD8+), %: 4.8 ± 1.0%
  T-suppressor (CD8+), % Normal Value: (100%)
  Total Salivary IgA: 0.48 ± 0.1 g/L
[1]; athletes treated, two month period
  Incidence of infection: 24.7%
[1]; vs controls
  Reduction of the rate of upper respiratory infections and illness: 4 fold
[2]; 200 μg im daily 5-7 days
  Clinical outcome: A dramatic change in the clinical picture was observed in all 12 patients
[2]; After L-Glu-L-Trp Therapy
  ATIII: 98.3 ± 15.3 % of normal
  Clotting time (citrated whole blood-recalcified): 146.5 ± 28.2
  FDP: 21.7 ± 0.8 µg/mL
  Fibrinogen Concentration: 4.7 ± 1.2 g/L
  Fibrinolytic Activity: 181.2 ± 52.2 min
  Kaolin-Cephalin clotting time: 61.7 ± 6.1
Dengue virus
  Clinical outcome: reduction of fever, more rapid reduction of toxic symptoms
[3]
  Clinical outcome at 2 months: disappearance of toxic symptoms, a resorption of pulmonary infiltrates, and a resolution of pulmonary cavities
  Considerable Improvement, % of patients: 24%
  Considerable Improvement, No. of patients: 9
  Improvement, % of patients: 73%
  Improvement, No. of patients: 27
  No Change, % of patients: 3%
  No Change, No. of patients: 1
  Patients with closure of degeneration foci and cavities in the lungs: 35 of the 37
  Patients with “improvement”: 27
  Response rate: 97%
neutrophils; 0.01 mg/kg
  Exudate cell concentration: 0.9×10^6
  Neutrophil migration and phagocytic activity: did not appear to stimulate neutrophil migration
neutrophils; 1 mg/kg, six day ip pretreatment
  Increase in percentage of phagocytic cells: 1.5 fold and 1.7 fold
neutrophils; 0.1 mg/kg (so in the source)
  Phagocytes (%): 17.8 ± 1.13%
  Phagocytic Index: 1.90 ± 0.05 No. bacteria/phagocyte
neutrophils; 1 mg/kg
  Phagocytes (%): 31.5 ± 0.4 %
  Phagocytic Index: 1.89 ± 0.03 No. bacteria/phagocyte
neutrophils; ip pretreatment (0.1 mg/kg)
  Number of neutrophils induced by proteose peptone: doubled
neutrophils; 0.01 mg/kg ip pretreatment
  Total Number of Cells Induced: 50 ×10^6
neutrophils; 1 mg/kg ip pretreatment
  Total Number of Cells Induced: 80* ×10^6
neutrophils; treated mice, sterile inflammatory agent
  Neutrophils, Phagocytic Index: ns
Staphylococcus aureus; 24 hours before challenge
  Survival by time of single prophylactic ip injection: more surviving animals than if pretreatment was at 1, 48, or 72 hrs
Staphylococcus aureus; 24 hours, Glu-Trp dose 0.01 μg/kg (alone or + Ampicillin)
  Percentage Survivors: 31.5%
Staphylococcus aureus; 24 hours, Glu-Trp dose 0.1 μg/kg (alone or + Ampicillin)
  Percentage Survivors: 33.3%
Staphylococcus aureus; 24 hours, Glu-Trp dose 1 μg/kg (alone or + Ampicillin)
  Percentage Survivors: 50.0* %
Staphylococcus aureus; 24 hours, Glu-Trp dose 10 μg/kg (alone or + Ampicillin)
  Percentage Survivors: 83.3* %
Staphylococcus aureus; 24 hours, Glu-Trp dose 100 μg/kg (alone or + Ampicillin)
  Percentage Survivors: 88.9* %
Staphylococcus aureus; 24 hours, dose cell empty (line after 100 μg/kg)
  Percentage Survivors: 83.3* %
Staphylococcus aureus; 48 hours, Glu-Trp dose 0.01 μg/kg (alone or + Ampicillin)
  Percentage Survivors: 3.7%
Staphylococcus aureus; 48 hours, Glu-Trp dose 0.1 μg/kg (alone or + Ampicillin)
  Percentage Survivors: 0%
Staphylococcus aureus; 48 hours, Glu-Trp dose 1 μg/kg (alone or + Ampicillin)
  Percentage Survivors: 27.8* %
Staphylococcus aureus; 48 hours, Glu-Trp dose 10 μg/kg (alone or + Ampicillin)
  Percentage Survivors: 50.0* %
Staphylococcus aureus; 48 hours, Glu-Trp dose 100 μg/kg (alone or + Ampicillin)
  Percentage Survivors: 61.1* %
Staphylococcus aureus; 48 hours, dose cell empty (line after 100 μg/kg)
  Percentage Survivors: 72.2* %
Staphylococcus aureus; 72 hours, Glu-Trp dose 0.01 μg/kg (alone or + Ampicillin)
  Percentage Survivors: 0%
Staphylococcus aureus; 72 hours, Glu-Trp dose 0.1 μg/kg (alone or + Ampicillin)
  Percentage Survivors: 0%
Staphylococcus aureus; 72 hours, Glu-Trp dose 1 μg/kg (alone or + Ampicillin)
  Percentage Survivors: 5.6%
Staphylococcus aureus; 72 hours, Glu-Trp dose 10 μg/kg (alone or + Ampicillin)
  Percentage Survivors: 33.3* %
Staphylococcus aureus; 72 hours, Glu-Trp dose 100 μg/kg (alone or + Ampicillin)
  Percentage Survivors: 50.0* %
Staphylococcus aureus; 72 hours, dose cell empty (line after 100 μg/kg)
  Percentage Survivors: 55.6* %
Staphylococcus aureus; ip or im routes
  Survival: increased the percentage of animals surviving challenge with a lethal number of Staphylococcus aureus
Staphylococcus aureus; single agent or combined therapy
  Survival, multiple treatment regimen at 72, 48 and 24 hrs: significantly higher (p<0.05) survival than a single treatment dose
